Tests used:
Assay in all cases: Leaf treatment test (post-emergence spray, % damage)
Assay type in all cases: in vivo
Conditions in all cases: 14 days after treatment, vs untreated control
[1] = tested on: Echinochloa crus-galli Beauv. var. caudata Kitagawa (Barnyard grass, ECHCG)
Experimental: (§1) Seeds of rice, wheat, barley, corn, cotton, barnyard grass, common sorgum, large crabgrass and fall panicum were seeded at a pot with a surface area of 600 cm. When barnyard grass kept at 20˜30° C. had three leaves, wettable powders prepared by mixing 1 weight part of the active compound, 5 weight part of acetone and 1 weight part of emulsifier and diluting with water was applied directly on the leaves in 2000 l per hectare. The concentration of the spray liquid was so chosen the particular amounts of the active compound desired. 14 days after the treatment, the degree of damage to the plants was rated in % damage in comparison to the development of untreated control. 0% no action (like untreated control) 20% slight effect 70% herbicidal effect 100% total destruction [table]

[2] = tested on: Oryza sativa L. cv. Dongjin (Rice, ORYSA)
Experimental: as §1

[3] = tested on: Andropogon sorghum (Common sorgum, SORBI)
Experimental: as §1

[4] = tested on: Digitaria Sanguinalis (L.) SCOP (Large crabgrass, DIGSA)
Experimental: as §1

[5] = tested on: Glydne max (L.) MERR (Soy bean, GLXMA)
Experimental: [The procedure below names another organism; the source lists this organism under the same test.] as §1

[6] = tested on: Gossypium (Cotton, GOSHI)
Experimental: as §1

[7] = tested on: Panicum dichotomiflorum Michx (Fall panicum, PANDI)
Experimental: as §1

[8] = tested on: Triticum aestivum L. (Wheat, TRZAW)
Experimental: as §1

[9] = tested on: Zea mays L. (Corn, ZEAMX)
Experimental: as §1

Q: What does the source list for `COC(=O)c1cccc(NC(=O)C(C)Oc2ccc(Oc3nc4ccc(Cl)cc4o3)cc2)c1` (stereo not shown) [Compound 1]?
A: degree of damage to the plants, ECHCG ([1]; 15 g/ha): 0%; degree of damage to the plants, ECHCG ([1]; 30 g/ha): 80%; degree of damage to the plants, ECHCG ([1]; 60 g/ha): 100%; degree of damage to the plants, ECHCG ([1]; 125 g/ha): 100%; degree of damage to the plants, ECHCG ([1]; 250 g/ha): 100%; degree of damage to the plants, ECHCG ([1]; 500 g/ha): 100%; degree of damage to the plants, ECHCG ([1]; 1000 g/ha): 100%; degree of damage to the plants, ORYSA ([2]; 15 g/ha): 0%; degree of damage to the plants, ORYSA ([2]; 30 g/ha): 0%; degree of damage to the plants, ORYSA ([2]; 60 g/ha): 0%; degree of damage to the plants, ORYSA ([2]; 125 g/ha): 0%; degree of damage to the plants, ORYSA ([2]; 250 g/ha): 10%; degree of damage to the plants, ORYSA ([2]; 500 g/ha): 20%; degree of damage to the plants, ORYSA ([2]; 1000 g/ha): 30%

Q: Which “degree of damage to the plants, SORBI” value ([3]; 0.004 kg/ha) does the source give for `CCOC(=O)c1cccc(NC(=O)C(C)Oc2ccc(Oc3nc4ccc(Cl)cc4o3)cc2)c1` (stereo not shown) [Compound 2] here?
A: 40%

Q: And the “degree of damage to the plants, SORBI” value ([3]; 0.016 kg/ha)?
A: 100%

Q: And the “degree of damage to the plants, SORBI” value ([3]; 0.063 kg/ha)?
A: 100%

Q: And the “degree of damage to the plants, SORBI” value ([3]; 1 kg/ha)?
A: 100%

Q: And the “degree of damage to the plants, SORBI” value ([3]; 025 kg/ha)?
A: 100%

Q: And the “degree of damage to the plants, DIGSA” value ([4]; 0.004 kg/ha)?
A: 95%

Q: What about the “degree of damage to the plants, DIGSA” value ([4]; 0.016 kg/ha) of the same molecule?
A: 100%

Q: And the “degree of damage to the plants, DIGSA” value ([4]; 0.063 kg/ha)?
A: 100%

Q: And the “degree of damage to the plants, DIGSA” value ([4]; 1 kg/ha)?
A: 100%

Q: What about the “degree of damage to the plants, DIGSA” value ([4]; 025 kg/ha) of the same molecule?
A: 100%

Q: And the “degree of damage to the plants, ECHCG” value ([1]; 0.004 kg/ha)?
A: 90%

Q: What about the “degree of damage to the plants, ECHCG” value ([1]; 0.016 kg/ha) of the same molecule?
A: 100%

Q: And the “degree of damage to the plants, ECHCG” value ([1]; 0.063 kg/ha)?
A: 100%

Q: And the “degree of damage to the plants, ECHCG” value ([1]; 1 kg/ha)?
A: 100%

Q: What about the “degree of damage to the plants, ECHCG” value ([1]; 15 g/ha) of the same molecule?
A: 8%

Q: What about the “degree of damage to the plants, ECHCG” value ([1]; 025 kg/ha) of the same molecule?
A: 100%

Q: What about the “degree of damage to the plants, ECHCG” value ([1]; 30 g/ha) of the same molecule?
A: 100%

Q: What about the “degree of damage to the plants, ECHCG” value ([1]; 60 g/ha) of the same molecule?
A: 100%

Q: What about the “degree of damage to the plants, ECHCG” value ([1]; 125 g/ha) of the same molecule?
A: 100%

Q: And the “degree of damage to the plants, ECHCG” value ([1]; 250 g/ha)?
A: 100%

Q: What about the “degree of damage to the plants, ECHCG” value ([1]; 500 g/ha) of the same molecule?
A: 100%

Q: What about the “degree of damage to the plants, ECHCG” value ([1]; 1000 g/ha) of the same molecule?
A: 100%

Q: And the “degree of damage to the plants, GLXMA” value ([5]; 0.004 kg/ha)?
A: 0%

Q: What about the “degree of damage to the plants, GLXMA” value ([5]; 0.016 kg/ha) of the same molecule?
A: 0%

Q: And the “degree of damage to the plants, GLXMA” value ([5]; 0.063 kg/ha)?
A: 0%

Q: And the “degree of damage to the plants, GLXMA” value ([5]; 1 kg/ha)?
A: 0%

Q: And the “degree of damage to the plants, GLXMA” value ([5]; 025 kg/ha)?
A: 0%

Q: And the “degree of damage to the plants, GOSHI” value ([6]; 0.004 kg/ha)?
A: 0%

Q: What about the “degree of damage to the plants, GOSHI” value ([6]; 0.016 kg/ha) of the same molecule?
A: 0%

Q: And the “degree of damage to the plants, GOSHI” value ([6]; 0.063 kg/ha)?
A: 0%

Q: And the “degree of damage to the plants, GOSHI” value ([6]; 1 kg/ha)?
A: 0%

Q: What about the “degree of damage to the plants, GOSHI” value ([6]; 025 kg/ha) of the same molecule?
A: 0%

Q: And the “degree of damage to the plants, ORYSA” value ([2]; 0.004 kg/ha)?
A: 0%

Q: What about the “degree of damage to the plants, ORYSA” value ([2]; 0.016 kg/ha) of the same molecule?
A: 0%

Q: And the “degree of damage to the plants, ORYSA” value ([2]; 0.063 kg/ha)?
A: 0%

Q: And the “degree of damage to the plants, ORYSA” value ([2]; 1 kg/ha)?
A: 40%

Q: What about the “degree of damage to the plants, ORYSA” value ([2]; 15 g/ha) of the same molecule?
A: 0%

Q: And the “degree of damage to the plants, ORYSA” value ([2]; 025 kg/ha)?
A: 40%

Q: And the “degree of damage to the plants, ORYSA” value ([2]; 30 g/ha)?
A: 0%

Q: And the “degree of damage to the plants, ORYSA” value ([2]; 60 g/ha)?
A: 0%

Q: And the “degree of damage to the plants, ORYSA” value ([2]; 125 g/ha)?
A: 0%

Q: What about the “degree of damage to the plants, ORYSA” value ([2]; 250 g/ha) of the same molecule?
A: 15%

Q: What about the “degree of damage to the plants, ORYSA” value ([2]; 500 g/ha) of the same molecule?
A: 35%

Q: And the “degree of damage to the plants, ORYSA” value ([2]; 1000 g/ha)?
A: 45%

Q: What about the “degree of damage to the plants, PANDI” value ([7]; 0.004 kg/ha) of the same molecule?
A: 95%

Q: And the “degree of damage to the plants, PANDI” value ([7]; 0.016 kg/ha)?
A: 100%

Q: What about the “degree of damage to the plants, PANDI” value ([7]; 0.063 kg/ha) of the same molecule?
A: 100%

Q: What about the “degree of damage to the plants, PANDI” value ([7]; 1 kg/ha) of the same molecule?
A: 100%

Q: And the “degree of damage to the plants, PANDI” value ([7]; 025 kg/ha)?
A: 100%

Q: What about the “degree of damage to the plants, TRZAW” value ([8]; 0.004 kg/ha) of the same molecule?
A: 0%

Q: And the “degree of damage to the plants, TRZAW” value ([8]; 0.016 kg/ha)?
A: 0%

Q: What about the “degree of damage to the plants, TRZAW” value ([8]; 0.063 kg/ha) of the same molecule?
A: 0%

Q: What about the “degree of damage to the plants, TRZAW” value ([8]; 1 kg/ha) of the same molecule?
A: 40%

Q: And the “degree of damage to the plants, TRZAW” value ([8]; 025 kg/ha)?
A: 20%

Q: And the “degree of damage to the plants, ZEMAX” value ([9]; 0.004 kg/ha)?
A: 0%

Q: What about the “degree of damage to the plants, ZEMAX” value ([9]; 0.016 kg/ha) of the same molecule?
A: 0%

Q: And the “degree of damage to the plants, ZEMAX” value ([9]; 0.063 kg/ha)?
A: 20%

Q: And the “degree of damage to the plants, ZEMAX” value ([9]; 1 kg/ha)?
A: 100%

Q: And the “degree of damage to the plants, ZEMAX” value ([9]; 025 kg/ha)?
A: 100%

Source: patent US6489268B1, “Highly selective herbicidal phenoxypropionic acid alkoxycarbonyl anilid compounds and method of preparing the same” (Dongbu Hannong Chemical Co., Ltd., priority 1999, dated 2002)
